Assay results from patent US11926580B2, “Hydropersulfide precursors” (THE JOHNS HOPKINS UNIVERSITY, priority 2018, dated 2024).

Tests used:
[1] = UPLC-MS analysis of RSSH trapping with N-ethylmaleimide; format: physicochemical; conditions: UPLC-MS
Experimental: FIGS. 2a and 2b provide graphs of (a) UPLC-MS chromatograms of RSSH generation from 4d (200 μM) in the presence of NEM (4 mM) incubated in pH 7.4 ammonium bicarbonate (100 mM) with DTPA (100 μM) at 37° C. A peak at 3.7 min corresponding to N-ethylmaleamic acid (NEMA), derived from NEM hydrolysis, was observed under these conditions (see SI); (b) MS spectrum (ESI+ mode) of the product eluting at 5.06 min corresponding to 5a with m/z 349.0885 (expected m/z 349.0886).
FIG. 5 provides a graph of UPLC-MS chromatograms of RSSH generation from compound 1 (1 mM) in the presence of NEM (5 mM) incubated in pH 7.4 ammonium bicarbonate buffer containing DTPA (100 μM) for 30 min at 37° C. The asterisk indicates the methyl ester analogue of dialkyl trisulfide 2, which was also formed due to the presence of minor amount of methyl ester analogue of 1. A peak at 3.7 min corresponding to N-ethylmaleamic acid (NEMA), derived from NEM hydrolysis, was observed under these conditions.
RSSH trapping in the presence of N-ethylmaleimide (NEM) was carried out with a Waters Acquity/Xevo-G2 UPLC-MS system equipped with an ACQUITY UPLC BEH C18 column (2.1 mm×50 mm, 1.7 μm). Typically, RSSH precursor (1 eq) was incubated with NEM (5 to 20 eq) in freshly prepared pH 7 4 ammonium bicarbonate buffer (100 mM) containing DTPA (100 μM) at 37° C. An aliquot of the reaction mixture (300 μL) was withdrawn at specified time points, quenched with 0.25% formic acid (300 μL), and filtered through a 0.22 μm filter. The samples were then loaded into vials in an autosampler maintained at 4° C. and analyzed using UPLC-MS as follows: Mobile phase: 0-1 min 90% water+0% ACN+10% formic acid (0.1%); 1-7.5 min gradient up to 10% water+80% ACN+10% formic acid (0.1%); 7.5-8.4 min 10% water+80% ACN+10% formic acid (0.1%); 8.4-8.5 min gradient up to 90% water+0% ACN+10% formic acid (0.1%), 8.5-10 min 90% water+0% ACN+10% formic acid (0.1%). Flow rate=0.3 mL min^−1. The mass signals for products of RSSH trapping with NEM were obtained via deconvolution using MassLynx 4.1 software.
To a solution of NEM (5 mM) in pH 7 4 ammonium bicarbonate (100 mM) with DTPA (100 μM) in a 20-mL scintillation vial, hydropersulfide precursor 1 (1 mM, total reaction volume 3 mL) was added. The resulting mixture was incubated at 37° C. for 30 min. An aliquot of 300 μL reaction mixture was withdrawn, quenched with 300 μL of formic acid (0.25%) and analyzed using UPLC-MS.

cardiomyocyte H9c2 cells [2] = assay: Cytoprotection against hydrogen peroxide-induced cytotoxicity; format: cell-based; conditions: pretreatment 2 h (4d 50 μM; phenyl cyanamide 200 μM), then H2O2 200 μM 2 h, CCK-8
Experimental: (§1) FIGS. 6a and 6b provide graphs of (a) the cell viability of cardiomyocyte H9c2 cells following incubation of the RSSH precursor 4d (50 μM) and phenylcynamide (200 μM) for 24 h; and (b) the cytoprotective effects of the RSSH precursor 4d observed following pretreatment of H9c2 cells with either 4d (50 μM) or phenylcynamide (200 μM) for 2 h, followed by hydrogen peroxide (200 μM) treatment for 2 h. Quantification of cell viability was carried out using Cell Counting Kit-8 (CCK-8). Results are expressed as the mean±SEM (n=6).
Since hydropersulfides are reported to mitigate oxidative stress, the ability of RSSH precursor 4d to protect cardiomyocyte H9c2 cells from cytotoxicity induced by hydrogen peroxide (H2O2) was tested.

[3] = Decomposition of precursor at pH 6 and pH 8.5; format: physicochemical
Source text: Based on the clean formation of hydropersulfide and aryl cyanamide during decomposition of 4d-h, the general mechanism shown in Scheme 5 is proposed. Neutralization of S-alkyl-thioisothiourea 7 (or its resonance partner 7a) occurs at pH 7.4 to produce a neutral species 8 and/or 8a, which can further undergo an elimination reaction to produce RSSH and aryl cyanamide. The elimination reaction can be initiated by either donation of the imine-nitrogen lone pair of 8 to form aryl cyanamide and RSSH (Scheme 5, eq. 2) or deprotonation of the arylamino-nitrogen proton to form RSSH and an aryl carbodiimide, which can further undergo tautomerization to afford the aryl cyanamide (Scheme 5, eq. 3). Alternately, an elimination reaction can be initiated by donation of the nitrogen lone pair of intermediate 8a to produce RSSH and aryl carbodiimide (Scheme 5, eq. 1). The decomposition of precursor 4d was examined at pH 6 and pH 8.5. […] In addition, the thermodynamic stability of the aryl cyanamide produced could contribute to the observed rate of RSSH release.

cardiomyocyte H9c2 cells [4] = assay: Cytotoxicity / cell viability assay with Cell Counting Kit-8; format: cell-based; conditions: 50 μM, 24 h, CCK-8
Experimental: as §1
The cytotoxicity and impact on cell viability of the hydropersulfide (RSSH) precursor 4d have been examined using the cardiomyocyte H9C2 cell line and Cell Counting Kit-8 (CCK-8). A cell viability assay reveled that 4d was not cytotoxic at 50 μM ([…]).

[5] = Kinetics of RSSH generation by 1H NMR with NEM trapping; format: physicochemical; conditions: pH 7.4 buffer with 20% MeOD, pH 7.4; read-out: half-life of precursor

## CC(=O)NC(C(=O)O)C(C)(C)SSC(=N)Nc1ccccc1.Cl (centres unmarked) [Precursor 4d, ((1-acetamido-1-carboxy-2-methylpropan-2-yl)disulfaneyl)(phenylamino)methaniminium chloride]
[1]; NEM trap, pH 7.4 buffer, 37° C.
  RSSH generation (RSS-NEM adduct formation): clean conversion of 4d to the RSS-NEM adduct 5a
[1]; NEM, pH 7.4, 37° C.
  phenyl cyanamide yield from precursor decomposition: 94%
Cardiomyocyte H9c2 cells [2]
  cytoprotection from H2O2-induced cytotoxicity: significant cytoprotection
[3]; pH 6 (lower pH)
  decomposition rate: substantially slowed
[3]; pH 8.5 (higher pH)
  decomposition rate: increased
Cardiomyocyte H9c2 cells [4]
  cytotoxicity (cell viability): not cytotoxic
[5]
  half-life: 4.3 min
other
  melting point: 155 to 157 °C
